In general, melting point refers to the temperature, or range, at which the solid turns liquid.

`CNC1CC(C)(C)Oc2cc3c(cc21)C(c1cccc(Cl)c1)CC(C)(C)O3` (stereo not shown) [Example 4, 6-(3-chlorophenyl)-3,4,7,8-tetrahydro-N-methyl-2,2,8,8-tetramethyl-2H,6H-benzo[1,2-b:5,4-b′]dipyran-4-amine] showed a melting point of 190 to 192 °C.
